Measurements taken from US9868736B2, “Deubiquitinase inhibitors and methods for use of the same” (THE REGENTS OF THE UNIVERSITY OF MICHIGAN, priority 2013, dated 2018).
Values after ≈ are worked out from the molar mass of the structure shown. “Also recorded” adds a separate entry of the source. Like-named read-outs stand apart in the source and are kept apart here.

Legend:
[1] = system: CD34+ cells from normal donors and myeloma cell lines (MM1.S, H929); assay: apoptosis by annexin V staining (flow cytometry); format: cell-based; conditions: 24 hours
Method: Cellular apoptosis was measured by detection of annexin V on the surface of cells using flow cytometry. Cells were treated with the indicated concentration of G9 for 24 hours before assessing annexin positivity as an indication of […] using duplicate assays derived from duplicate samples. CD34+ cells from two normal donors (left) or two myeloma cell lines (right) were treated with the indicated concentration of G9 for 24 hours before measuring cell survival by annexin V staining (assessed by flow cytometry). Each data point represents the average of 2 samples assayed in duplicate and presented as the average+/−S.D. for each G9 concentration.

[2] = molecular target: Usp9x (Homo sapiens, UniProt Q93008); assay: DUB activity (HA-Ub vinyl-sulfone labelling) in lysates of treated intact cells; format: cell-based; set-up: endogenous in cells; host or cells: Z138 lymphoma, MM1.S/MM1.ST myeloma, primary PCL cells, A375 and vemurafenib-resistant A375 melanoma; conditions: for inhibition at 5 µM: MM1.ST or PCL cells
Method: In brief, control and treated cells were lysed by sonication in DUB assay buffer [50 mM Tris-HCl (pH 7.5), 5 mM MgCl2, 250 mM sucrose, 1 mM PMSF, 1× Roche proteinase inhibitory cocktail] and 20 μg of protein from the supernatant fraction (after a 14,000×g spin) were incubated with 200 nM HA-Ub vinyl-sulfone (Boston Biochem) in a final volume of 20 μl. After 90 min at 37° C., reactions were stopped with the addition of 5×-sample buffer. DUB activity was detected by SDS-PAGE resolution of the protein followed by nitrocellulose membrane transfer and immunoblotting with anti-HA.
The time required for G9-mediated Usp9x inhibition in intact multiple myeloma (MM1.S) cells and primary tumor cells from a patient with plasma cell leukemia (PCL) was investigated. MM1.ST (FIG. 1, left) or PCL (FIG. 1, right) cells were treated with 5 μM of compound for the time indicated before Usp9x activity was assessed as described above.

[3] = aqueous solubility; format: physicochemical
[4] = molecular target: Usp24 (Homo sapiens, UniProt Q9UPU5); assay: Usp24 inhibition
Chain of Usp24 (Q9UPU5 whole entry): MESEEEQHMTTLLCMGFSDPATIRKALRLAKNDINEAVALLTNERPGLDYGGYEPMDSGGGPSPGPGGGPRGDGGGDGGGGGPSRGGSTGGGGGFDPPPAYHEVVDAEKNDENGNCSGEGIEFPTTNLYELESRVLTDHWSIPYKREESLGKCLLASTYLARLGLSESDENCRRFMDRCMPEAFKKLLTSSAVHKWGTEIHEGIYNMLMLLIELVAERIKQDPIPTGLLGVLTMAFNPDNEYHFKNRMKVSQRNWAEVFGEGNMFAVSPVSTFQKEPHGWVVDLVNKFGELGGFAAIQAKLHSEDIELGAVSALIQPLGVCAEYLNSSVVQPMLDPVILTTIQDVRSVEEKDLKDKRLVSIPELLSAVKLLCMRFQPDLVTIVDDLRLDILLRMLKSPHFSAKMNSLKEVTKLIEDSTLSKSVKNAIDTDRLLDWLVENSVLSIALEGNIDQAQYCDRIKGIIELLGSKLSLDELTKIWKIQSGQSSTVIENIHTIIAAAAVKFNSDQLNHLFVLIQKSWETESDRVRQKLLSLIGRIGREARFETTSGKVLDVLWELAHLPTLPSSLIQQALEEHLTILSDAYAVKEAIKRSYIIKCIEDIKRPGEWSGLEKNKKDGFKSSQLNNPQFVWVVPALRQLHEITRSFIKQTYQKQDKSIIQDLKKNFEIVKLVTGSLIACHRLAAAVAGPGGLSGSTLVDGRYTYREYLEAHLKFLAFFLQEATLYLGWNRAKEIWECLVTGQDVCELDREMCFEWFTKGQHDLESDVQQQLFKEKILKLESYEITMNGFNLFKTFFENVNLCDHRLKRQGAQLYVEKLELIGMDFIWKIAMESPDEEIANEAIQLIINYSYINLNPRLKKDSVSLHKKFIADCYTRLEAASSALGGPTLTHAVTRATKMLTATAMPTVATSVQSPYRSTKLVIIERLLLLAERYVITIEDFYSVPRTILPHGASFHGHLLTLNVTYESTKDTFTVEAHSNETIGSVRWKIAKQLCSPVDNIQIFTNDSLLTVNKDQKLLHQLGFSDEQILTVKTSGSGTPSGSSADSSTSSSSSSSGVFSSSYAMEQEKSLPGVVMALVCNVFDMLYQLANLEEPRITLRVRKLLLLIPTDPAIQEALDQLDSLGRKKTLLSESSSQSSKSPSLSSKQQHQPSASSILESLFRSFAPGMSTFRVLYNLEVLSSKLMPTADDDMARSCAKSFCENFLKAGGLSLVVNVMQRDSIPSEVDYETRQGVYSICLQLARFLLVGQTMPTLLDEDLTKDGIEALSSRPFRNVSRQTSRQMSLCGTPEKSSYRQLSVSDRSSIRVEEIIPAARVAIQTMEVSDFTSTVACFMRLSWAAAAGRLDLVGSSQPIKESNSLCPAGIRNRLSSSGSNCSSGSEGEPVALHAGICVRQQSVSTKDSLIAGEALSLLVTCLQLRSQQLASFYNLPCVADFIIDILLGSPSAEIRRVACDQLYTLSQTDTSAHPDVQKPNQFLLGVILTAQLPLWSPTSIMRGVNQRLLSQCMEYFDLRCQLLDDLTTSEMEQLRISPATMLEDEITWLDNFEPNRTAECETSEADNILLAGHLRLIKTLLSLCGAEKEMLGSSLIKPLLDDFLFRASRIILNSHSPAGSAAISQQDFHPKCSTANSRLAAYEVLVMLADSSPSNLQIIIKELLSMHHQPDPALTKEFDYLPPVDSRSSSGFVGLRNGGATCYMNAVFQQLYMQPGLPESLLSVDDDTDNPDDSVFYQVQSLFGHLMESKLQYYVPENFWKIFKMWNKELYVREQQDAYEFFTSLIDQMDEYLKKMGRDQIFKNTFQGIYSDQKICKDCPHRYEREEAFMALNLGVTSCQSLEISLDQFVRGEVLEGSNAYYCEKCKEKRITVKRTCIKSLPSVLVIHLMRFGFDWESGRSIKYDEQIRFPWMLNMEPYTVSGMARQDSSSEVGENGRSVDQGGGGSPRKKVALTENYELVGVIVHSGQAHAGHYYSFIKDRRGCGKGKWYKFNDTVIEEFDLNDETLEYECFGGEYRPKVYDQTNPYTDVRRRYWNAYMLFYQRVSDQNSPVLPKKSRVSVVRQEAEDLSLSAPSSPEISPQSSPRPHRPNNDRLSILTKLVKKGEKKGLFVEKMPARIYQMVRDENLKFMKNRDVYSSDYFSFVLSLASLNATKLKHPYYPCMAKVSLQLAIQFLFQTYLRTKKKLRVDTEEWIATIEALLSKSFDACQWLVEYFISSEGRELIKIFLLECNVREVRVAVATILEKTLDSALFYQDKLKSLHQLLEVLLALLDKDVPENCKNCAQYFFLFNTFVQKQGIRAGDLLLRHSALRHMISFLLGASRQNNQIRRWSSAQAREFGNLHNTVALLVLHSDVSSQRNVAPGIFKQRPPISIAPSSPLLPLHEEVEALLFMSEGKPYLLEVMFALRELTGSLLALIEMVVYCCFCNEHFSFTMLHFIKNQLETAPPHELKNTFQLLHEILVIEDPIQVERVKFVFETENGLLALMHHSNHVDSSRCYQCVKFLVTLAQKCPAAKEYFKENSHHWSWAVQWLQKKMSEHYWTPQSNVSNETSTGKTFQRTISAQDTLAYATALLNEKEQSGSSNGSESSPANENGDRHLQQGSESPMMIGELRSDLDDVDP

Chain of Usp9x (Q93008 whole entry): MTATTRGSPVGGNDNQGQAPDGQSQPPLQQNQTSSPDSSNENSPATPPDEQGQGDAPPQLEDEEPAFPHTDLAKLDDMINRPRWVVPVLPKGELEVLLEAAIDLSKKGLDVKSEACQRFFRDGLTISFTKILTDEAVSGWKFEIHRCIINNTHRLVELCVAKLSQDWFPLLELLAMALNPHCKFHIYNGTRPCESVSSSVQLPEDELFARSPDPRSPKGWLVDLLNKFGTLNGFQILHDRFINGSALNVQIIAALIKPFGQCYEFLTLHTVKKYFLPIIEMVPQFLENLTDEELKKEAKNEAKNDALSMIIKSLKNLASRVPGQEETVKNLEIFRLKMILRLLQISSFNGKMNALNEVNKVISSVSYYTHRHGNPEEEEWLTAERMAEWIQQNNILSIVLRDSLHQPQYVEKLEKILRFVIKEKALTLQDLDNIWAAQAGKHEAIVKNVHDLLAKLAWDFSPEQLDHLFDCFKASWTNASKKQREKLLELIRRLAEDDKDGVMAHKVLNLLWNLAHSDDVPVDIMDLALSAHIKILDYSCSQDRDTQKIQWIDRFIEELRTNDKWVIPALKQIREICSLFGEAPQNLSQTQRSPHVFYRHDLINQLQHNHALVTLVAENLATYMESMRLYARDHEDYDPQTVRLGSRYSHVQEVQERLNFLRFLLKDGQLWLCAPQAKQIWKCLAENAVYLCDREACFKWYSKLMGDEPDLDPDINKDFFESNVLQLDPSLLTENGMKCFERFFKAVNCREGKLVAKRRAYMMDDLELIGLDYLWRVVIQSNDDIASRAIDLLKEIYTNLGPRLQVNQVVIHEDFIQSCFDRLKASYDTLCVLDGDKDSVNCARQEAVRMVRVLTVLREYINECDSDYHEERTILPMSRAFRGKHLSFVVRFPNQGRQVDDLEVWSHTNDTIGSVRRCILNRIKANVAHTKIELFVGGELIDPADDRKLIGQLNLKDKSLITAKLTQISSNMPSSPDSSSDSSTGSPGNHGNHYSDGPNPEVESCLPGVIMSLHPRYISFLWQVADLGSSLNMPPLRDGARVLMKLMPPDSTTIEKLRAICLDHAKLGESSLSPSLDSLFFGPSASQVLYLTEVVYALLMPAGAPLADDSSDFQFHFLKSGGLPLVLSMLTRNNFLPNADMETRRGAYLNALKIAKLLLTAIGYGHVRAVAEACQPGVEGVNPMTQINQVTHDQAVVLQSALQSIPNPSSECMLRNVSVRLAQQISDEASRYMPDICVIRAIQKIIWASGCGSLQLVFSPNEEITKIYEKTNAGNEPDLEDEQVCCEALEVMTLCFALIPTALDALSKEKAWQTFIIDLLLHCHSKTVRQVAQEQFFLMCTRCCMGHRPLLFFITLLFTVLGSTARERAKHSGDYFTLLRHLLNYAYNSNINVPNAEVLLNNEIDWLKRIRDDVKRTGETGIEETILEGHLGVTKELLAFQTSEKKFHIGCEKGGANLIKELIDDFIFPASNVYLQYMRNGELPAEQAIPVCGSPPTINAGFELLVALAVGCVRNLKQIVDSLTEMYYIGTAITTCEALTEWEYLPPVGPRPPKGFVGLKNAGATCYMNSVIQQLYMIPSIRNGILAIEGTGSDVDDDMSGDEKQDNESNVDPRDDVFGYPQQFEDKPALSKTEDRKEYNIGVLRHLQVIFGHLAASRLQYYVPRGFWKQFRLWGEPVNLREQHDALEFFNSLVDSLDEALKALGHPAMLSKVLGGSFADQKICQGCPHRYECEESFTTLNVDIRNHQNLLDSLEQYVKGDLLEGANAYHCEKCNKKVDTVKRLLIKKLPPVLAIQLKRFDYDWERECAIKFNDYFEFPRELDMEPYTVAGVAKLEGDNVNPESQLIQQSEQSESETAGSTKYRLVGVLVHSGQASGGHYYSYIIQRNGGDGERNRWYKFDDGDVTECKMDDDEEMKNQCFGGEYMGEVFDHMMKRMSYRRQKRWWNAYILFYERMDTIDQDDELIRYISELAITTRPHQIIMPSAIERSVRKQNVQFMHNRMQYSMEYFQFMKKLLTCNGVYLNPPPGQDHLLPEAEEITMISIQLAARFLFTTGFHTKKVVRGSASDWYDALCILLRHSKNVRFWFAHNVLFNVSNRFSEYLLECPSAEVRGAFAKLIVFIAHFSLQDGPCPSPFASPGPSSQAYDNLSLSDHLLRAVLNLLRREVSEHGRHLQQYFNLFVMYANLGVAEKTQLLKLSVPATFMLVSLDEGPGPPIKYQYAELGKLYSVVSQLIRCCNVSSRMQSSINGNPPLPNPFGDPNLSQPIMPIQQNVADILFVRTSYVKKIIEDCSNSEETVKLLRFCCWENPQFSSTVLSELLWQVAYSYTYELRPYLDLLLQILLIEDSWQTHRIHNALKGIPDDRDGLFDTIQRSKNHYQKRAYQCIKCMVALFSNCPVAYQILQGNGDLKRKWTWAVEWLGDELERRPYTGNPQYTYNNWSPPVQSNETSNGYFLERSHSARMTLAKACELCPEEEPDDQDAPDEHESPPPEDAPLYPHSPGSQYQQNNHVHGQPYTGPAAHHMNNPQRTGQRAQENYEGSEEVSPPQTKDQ

CCCC(NC(=O)/C(C#N)=C/c1nc(Cl)ccc1Cl)c1ccc(OCCN2CCOCC2)cc1 (stereo not shown) [Compound G9, (E)-2-Cyano-3-(3,6-dichloropyridin-2-yl)-N-(1-(4-(2-morpholinoethoxy)phenyl)butyl)acrylamide]
apoptotic sensitivity of myeloma tumor cells versus normal CD34+ cells [1]: more apoptotically sensitive to G9 than normal CD34+ cells
effectiveness in inducing apoptosis, tumor (myeloma) versus normal CD34+ cells [1]: ~10 fold
Usp9x activity ([2]; A375 melanoma cells and vemurafenib-resistant A375 variant): inhibition of Usp9x activity in either cell type; also recorded: reduced Usp5 (and Usp9x) activity in both cell types
inhibition at 5 µM ([2]; 5 minutes, read-out: Usp9x activity inhibition): > 80%
inhibition at 5 µM ([2]; 60 minute, read-out: Usp9x inhibition): 100%
Usp9x activity in intact cells ([2]; Z138 lymphoma cells, 1.25, 2.5 and 5 μM, 4 hours): able to inhibit Usp9x activity in intact cells
Usp9x inhibition ([2]; myeloma (MM1.S) cells, various concentrations, FIG. 10): inhibits Usp9x and Usp5
solubility compared with earlier inhibitor [3]: improved solubility
solubility ([3]; aqueous medium (not specified further)): 19.8 µM (≈ 9.97 µg/mL)
Usp24 inhibition [4]: inhibited the DUB Usp24
